# Results as given in PMC7879702 (Antiviral research, 2020).
# Columns and labels:
# DENV2 [1] = assay type: cell-based, dengue virus; settings: read-out: EC50, DENV2 infection
# phospho-AP2M1 (T156) = assay type: cell-based
# DENV [2] = assay type: cell-based, dengue virus; settings: read-out: EC50, DENV infection in MDDC
# EBOV = assay type: cell-based, Ebola virus; settings: read-out: EC50, EBOV infection
# VEEV (TC-83) = assay type: cell-based, Venezuelan equine encephalitis virus; settings: read-out: EC50, VEEV (TC-83) infection
# DENV [3] = assay type: cell-based; settings: BIKE-inducible T-REx-293 cells, doxycycline induction, 72 hours treatment
# [4] = tested on: primary human monocyte derived dendritic cells (MDDC)
# ERK2 = settings: read-out: IC50, ERK2; cited from earlier work
# TAK1 = settings: read-out: IC50, TAK1; cited from earlier work
# BIKE = settings: cited from earlier work
# GAK = settings: at 10 μM; cited from earlier work
# AAK1 = settings: at 10 μM; cited from earlier work
# DENV2 [5] = assay type: cell-based, dengue virus
SMILES,EC50 (DENV2 [1]),effect on AP2M1 phosphorylation (phospho-AP2M1 (T156)),effect on phospho-AP2M1 level at 10 μM (phospho-AP2M1 (T156)),EC50 (DENV [2]),EC50 (EBOV),EC50 (VEEV (TC-83)),DENV infection upon BIKE expression in drug-treated cells (DENV [3]),CC50 [4],cellular toxicity in the EBOV assay (Huh7 cells),IC50 (ERK2),IC50 (TAK1),"KINOMEscan binding, BIKE (BIKE; at 10 μM)",IC50 (BIKE; read-out: IC50 value for BIKE inhibition or binding (Discussion)),"KINOMEscan binding, GAK (GAK)","KINOMEscan binding, AAK1 (AAK1)",effect on viral infection at 6 hours postinfection (DENV2 [5])
COc1cc(O)c2c(c1)/C=C/C[C@H](O)[C@H](O)C(=O)/C=C\C[C@H](C)OC2=O [5Z-7-oxozeaenol],2470 nM,dramatic reduction in AP2M1 phosphorylation,significant reduction,540 nM,4090 nM,2600 nM,partially restored,5490 nM,no apparent cellular toxicity within the concentration range tested,80 nM,8 nM,3.8 % of control,3.8 nM,10 % of control,13 % of control,–
C[C@@H]1C[C@@H]([C@H](O)CC2CC(=O)NC(=O)C2)C(=O)[C@@H](C)C1 [cycloheximide],–,–,–,–,–,–,–,–,–,–,–,–,–,–,–,suppressed viral infection
